Experimental data: patent publication US20220322671A1, “METHODS TO REDUCE CONTAMINATION, BIOFILM AND FOULING FROM WATER SYSTEMS, SURFACES, AND PRODUCTS” (Aequor, Inc., priority 2019, published 2022)
“And” between values parts separate entries of the source, which are not always exact repeats. Identical values can stand only once. Like-named read-outs stand apart in the source and are kept apart here.

How the values were obtained:
[1] = system: C. marina ATCC 25374 biofilm; experiment: MBEC biofilm eradication assay, C. marina; format: cell-based
C. marina ATCC 25374 [2] = experiment: Minimum bactericidal concentration, C. marina; format: cell-based
C. marina ATCC 25374 [3] = experiment: MIC broth microdilution, C. marina; format: cell-based
E. coli ATCC 11775 = experiment: MIC broth microdilution, E. coli; format: cell-based
A. niger ATCC 16888 = experiment: MIC broth microdilution, A. niger; format: cell-based
[4] = system: Heterochlorella luteoviridis cf. (SAG 2203); experiment: Algae growth inhibition; format: cell-based; conditions: 1% concentration, 14 days, absorbance 750 nm
Experimental: The molecules (SDBS, SDS, SEHS, and DBSA) were added to the growth culture medium of algae Heterochlorella luteoviridis cf. (SAG 2203.) Algae was grown in 50 ml tubes at 28 °C for 14 days. Absorbance (optical density) was measured at 750 nm in a spectrophotometer and used to determine concentration to inhibit the growth of algae.

L. fermentum (ATCC 9338) = experiment: MIC broth microdilution, L. fermentum; format: cell-based, Lactobacillus fermentum
S. aureus ATCC 12600 = experiment: MIC broth microdilution, S. aureus; format: cell-based
MRSA ATCC 33591 = experiment: MIC broth microdilution, MRSA; format: cell-based, S. aureus Methicillin-Resistant
P. aeruginosa NR-31041 = experiment: MIC broth microdilution, P. aeruginosa; format: cell-based, Pseudomonas aeruginosa
[5] = 24- and 48-hour biofilm, 30 min exposure
[6] = C. marina ATCC 25374, materials in water

`CCCCOP(=O)(O)OCCCC` [DBP, dibutyl phosphate] was tested, and the “% Reduction Compared to Control” value [1] was 99.9999% and 99.999%, the “Log Reduction” value [1] was 5.5 and the “MBEC ASTM E2799-12 Method (% v/v)” value [1] was 0.5 % v/v. The “% Reduction Compared to Control” value (C. marina ATCC 25374 [2]) was 99.9999%, the CFU/ml (C. marina ATCC 25374 [2]) was <1E+02^1 CFU/ml and the “Minimum Bactericidal Concentration (% v/v) CLSI M26-A Method” value (C. marina ATCC 25374 [2]) was 0.5000 % v/v. For the same compound, the “Growth of C. marina (in words)” value (C. marina ATCC 25374 [3]) was “inhibited growth” and the “Minimum Inhibitory Concentration (% v/v) M07-09 Method” value (C. marina ATCC 25374 [3]) was 0.1250 % v/v.
With `CCCCCCCCCCCCc1ccc(S(=O)(=O)O)cc1` [DBSA, 4-Dodecylbenzenesulfonic acid] the “MBEC ASTM E2799-12 Method (% v/v)” value [1, 5] was over 0.5 % v/v, the “% Biofilm Removal Efficacy” value ([1]; 48-hour biofilm, 0.0078 % v/v) was 73.64% and the “Log Reduction” value ([1]; 48-hour biofilm, 0.0078 % v/v) was 0.58. For the same compound, the “% Biofilm Removal Efficacy” value ([1]; 48-hour biofilm, 0.0156 % v/v) was 86.36%, the “Log Reduction” value ([1]; 48-hour biofilm, 0.0156 % v/v) was 0.87 and the “% Biofilm Removal Efficacy” value ([1]; 48-hour biofilm, 0.0313 % v/v) was 96.27%. The “Log Reduction” value ([1]; 48-hour biofilm, 0.0313 % v/v) was 1.43, the “% Biofilm Removal Efficacy” value ([1]; 48-hour biofilm, 0.0630 % v/v) was 98.27% and the “Log Reduction” value ([1]; 48-hour biofilm, 0.0630 % v/v) was 1.76. For the same compound, the “Removal of existing 48-hour biofilm (up to)” value ([1]; 48-hour biofilm, best of the tested concentrations) was at most 99%, the “Minimum Inhibitory Concentration (MIC) M07-09 Method, EC” value (E. coli ATCC 11775; E. coli ATCC 11775) was 0.100 % v/v and the “% Reduction Compared to Control” value (C. marina ATCC 25374 [2]; C. marina ATCC 25374, killing) was 99.9999%. The “Minimum Bactericidal Concentration (% v/v) CLSI M26-A Method” value (C. marina ATCC 25374 [2]; [6]) was 0.0078 % v/v, the CFU/ml (C. marina ATCC 25374 [2]; C. marina ATCC 25374, detection limit <1E+02) was <1E+02^1 CFU/ml and the “Minimum Inhibitory Concentration (MIC) M07-09 Method, AN” value (A. niger ATCC 16888; A. niger ATCC 16888) was 0.003 % v/v. The Algae growth [4] was “inhibited”, the “Growth of C. marina (in words)” value (C. marina ATCC 25374 [3]; C. marina) was “inhibited growth” and the “Minimum Inhibitory Concentration (% v/v) M07-09 Method” value (C. marina ATCC 25374 [3]; [6]) was under 0.0039 % v/v. The “Minimum Inhibitory Concentration (MIC) (% v/v) M07-09 Method, L. fermentum” value (L. fermentum (ATCC 9338)) was 0.0150 % v/v, the “Minimum Inhibitory Concentration (MIC) M07-09 Method, SA” value (S. aureus ATCC 12600; S. aureus ATCC 12600) was 0.003 % v/v and the “Minimum Inhibitory Concentration (MIC) M07-09 Method, MRSA” value (MRSA ATCC 33591) was 0.003 % v/v. For the same compound, the “Minimum Inhibitory Concentration (MIC) M07-09 Method, PA” value (shortened to “Minimum Inhibitory Concentration … PA”) (P. aeruginosa NR-31041; P. aeruginosa NR-31041) was 0.500 % v/v.
`CCCCCCCCCCCCOS(=O)(=O)[O-].[Na+]` [SDS, sodium dodecyl sulfate] was tested, and the “Minimum Inhibitory Concentration (MIC) M07-09 Method, EC” value (E. coli ATCC 11775) was 0.100 % v/v, the “Minimum Inhibitory Concentration (MIC) M07-09 Method, AN” value (A. niger ATCC 16888) was 0.030 % v/v and the Algae growth [4] was “inhibited”. The “Minimum Inhibitory Concentration (MIC) M07-09 Method, SA” value (S. aureus ATCC 12600) was 0.028 % v/v, the “Minimum Inhibitory Concentration (MIC) M07-09 Method, MRSA” value (MRSA ATCC 33591) was 0.028 % v/v and the “Minimum Inhibitory Concentration … PA” value (P. aeruginosa NR-31041) was 0.500 % v/v.
For `CCCCC(CC)COS(=O)(=O)[O-].[Na+]` (stereo not drawn) [SEHS, sodium 2-ethylhexylsulfate], the “MBEC ASTM E2799-12 Method (% v/v)” value [1, 5] was over 0.5 % v/v, the “% Reduction Compared to Control” value (C. marina ATCC 25374 [2]) was 99.9999% and the CFU/ml (C. marina ATCC 25374 [2]) was <1E+02^1 CFU/ml. For the same compound, the “Minimum Bactericidal Concentration (% v/v) CLSI M26-A Method” value (C. marina ATCC 25374 [2]) was 0.0630 % v/v, the Algae growth [4] was “inhibited” and the “Growth of C. marina (in words)” value (C. marina ATCC 25374 [3]) was “inhibited growth”. For the same compound, the “Minimum Inhibitory Concentration (% v/v) M07-09 Method” value (C. marina ATCC 25374 [3]) was 0.0313 % v/v, the “Minimum Inhibitory Concentration (MIC) M07-09 Method, SA” value (S. aureus ATCC 12600) was 0.280 % v/v and the “Minimum Inhibitory Concentration … PA” value (P. aeruginosa NR-31041) was 0.500 % v/v.
